Measurements taken from patent US20240189276A1, “COMPOSITIONS COMPRISING LACTATE DEHYDROGENASE-A INHIBITORS AND METHODS OF PRODUCTION AND USE THEREOF” (Southwestern Oklahoma State University, priority 2022, published 2024).

Tests used:
MIA PaCa-2 = conditions: literature; read-out: cell viability IC50 in MIA PaCa-2; cited from earlier work
cancer cell growth = conditions: literature, hypoxic conditions; read-out: IC50, inhibition of cancer cell growth; cited from earlier work
[1] = literature; cited from earlier work
[2] = system: HeLa human cervical carcinoma cells; conditions: literature; normoxic conditions stated for NHI-2; cited from earlier work
PANC-1 = conditions: literature, normoxic conditions; read-out: viability IC50 in PANC-1; cited from earlier work
PDAC cells = conditions: literature; cited from earlier work
Snu398 cells = conditions: literature; read-out: cell viability EC50 in Snu398 cells; cited from earlier work
[3] = system: human pancreatic and lymphoma cancer xenografts; conditions: literature; cited from earlier work
PANC-1 cells = assay: Cytotoxicity (viability/proliferation/necrosis) assay, PANC-1; assay type: cell-based; conditions: Homo sapiens; PANC-1, 48 hr, normoxic; read-out: Cytotoxicity IC50 ± SD, PANC-1
Method: (§1) Cytotoxicity study: Anticancer potency was investigated using a fluorescence-based high throughput confocal microscopy cell viability/proliferation/cell death assay. […] Selected compounds were also tested in the FC1199 pancreatic cancer line from the KPC-1 genetically engineered mouse model. Compounds were also tested in hTERT immortalized normal pancreatic (HPNE) cell lines to rule out nonspecific cytotoxicity of compounds.
(§2) Cell lines. The human PANC-1, MiaPaCa-2, and HPNE cell lines were obtained from American Type Culture Collection (ATCC, Manassas, VA, USA). Mouse pancreatic cancer FC1199 cells were obtained from the KPC-1 genetically engineered mouse model that has mutated K-Ras, metastasizes to the liver, and forms desmoplasia.
(§3) Cytotoxicity assay. Cytotoxicity was assessed using the viability/proliferation/necrosis assay. […] Confocal images were acquired using the Operetta High Content Imaging System (PerkinElmer). […] SYTOX Green will be detected using an excitation wavelength of 500-520 nm and an emission wavelength of 520-530 nm. Brightfield images will also be acquired for each field. […] Cell counts were summed over the five fields for each well, and the percentage of viable cells was calculated relative to the untreated control.

[4] = system: FC1199 pancreatic cancer cells; assay: Cytotoxicity (viability/proliferation/necrosis) assay, FC1199; assay type: cell-based; conditions: Mus musculus, Pancreatic cancer cell; FC-1199, 48 hr; read-out: Cytotoxicity IC50 ± SD, FC-1199
Method: as §1, §2, §3

[5] = Cytotoxicity assay in hTERT immortalized normal pancreatic cells; assay type: cell-based; conditions: human, HPNE cells (hTERT immortalized normal pancreatic cells), read-out: Cytotoxicity IC50 ± SD, HPNE Normal
Method: as §1, §2, §3

LDHA = LDHA (Homo sapiens, UniProt P00338); conditions: literature; cited from earlier work
cells = conditions: literature; cited from earlier work
hLDH5 (LDHA) = hLDH5 (LDHA) (Homo sapiens, UniProt P00338); assay: Biochemical LDHA (hLDH5) inhibition assay, NADH fluorescence; conditions: read-out: LDHA inhibition IC50 ± SD
Method: Biochemical LDHA inhibition assay: The hLDH5 (LDHA) enzymatic activity was measured by fluorescence (excitation@ 340 nm, emission@ 460 nm) to monitor the rate of conversion of NADH to NAD+at 37° C.
The hLDH5 (LDHA) inhibition assay was performed by measuring the fluorescence (excitation@ 340 nm, emission@ 460 nm) and monitoring the rate of conversion of NADH to NAD+at 37° C. as reported. […] The stock solution of compounds was prepared in DMSO. […] The experiment involved adding a solution of compounds in DMSO to the enzyme and NADH in a phosphate buffer. The assay plate was incubated at 25° C. for 10 minutes, and a baseline read was taken, after which pyruvate was added. The fluorescence was read for 5 minutes every 30 seconds in a microplate reader. The slope of a suitable linear timeframe was calculated with the curve bottom assigned to the initial 5-second recording before adding pyruvate (background rate) and the curve top to the negative (DMSO only) control wells rate. IC50 values were determined from dose-response curves using four-parameter logistic non-linear regression analysis in Prism Software v9.0. The assays were performed in triplicates and the data is presented as mean±SD (n=3).

Compound	IC50 (PANC-1 cells) [µM]	IC50 [4] [µM]	IC50 at 48 hr [5] [µM]	further results
GNE-140	–	–	–	IC50 (MIA PaCa-2): 2.05 µM; IC50 (cancer cell growth): 2 µM; pharmacokinetics / clearance in vivo [1]: high clearance
COC(=O)c1cc2c(C(F)(F)F)cc(-c3ccccc3)cc2n1O [NHI-2]	–	–	–	IC50 [2]: 33.4 µM; IC50 (PANC-1): 22.2 µM; apoptosis and gemcitabine synergy (PDAC cells): induced apoptosis, and synergistically enhanced gemcitabine activity in PDAC cells
COc1ncc(-c2ccc3c(Nc4cc(Oc5cc(F)cc(F)c5)cc(C(=O)O)c4)c(S(=O)(=O)NC4CC4)cnc3c2)c(OC)n1 [GSK2837808A]	–	–	–	EC50 (Snu398 cells): 2.9 µM; IC50 (cancer cell growth): 2.97 µM; pharmacokinetics / clearance in vivo [1]: poor pharmacokinetics in vivo
CCCc1c(O)c(O)c(C(=O)O)c2cc(Cc3ccccc3)c(C)cc12 [FX-11]	–	–	–	IC50 [2]: 23.3 µM; progression of cancer xenografts [3]: inhibit the progression of human pancreatic and lymphoma cancer xenografts
COC(=O)C(CC(=O)Nc1ccc(C(=O)c2nccn2C)cc1)c1ccc(C(F)(F)F)cc1 (centres unmarked) [Compound 4]	23.9 ± 1.8	12.1 ± 1.2	49.5 ± 7.3	–
Cc1nc2ccc(NC(=O)CCNC(=O)CCCc3ccc(CC(C(=O)O)C(=O)O)cc3)cc2s1 [AZ33]	–	–	–	IC50 (LDHA): 0.5 µM; cellular activity (cells): inactive in cells
Cn1ccnc1C(=O)c1ccc(NC(=O)CC(C(=O)O)c2ccc(C(F)(F)F)cc2)cc1 (centres unmarked) [Compound 5]	43.3 ± 3.98	20.8 ± 2.97	> 50	–
COC(=O)C(CC(=O)Nc1ccc(C(=O)N2CCc3ccccc32)cc1)c1ccc(C(F)(F)F)cc1 (centres unmarked) [Compound 17]	24.2 ± 1.08	73.4 ± 6.8	50.7 ± 3.6	–
COC(=O)C(CC(=O)Nc1ccc(F)cn1)c1ccc(C(F)(F)F)cc1 (centres unmarked) [Compound 23]	22.3 ± 2	13.3 ± 0.9	> 50	IC50 (hLDH5 (LDHA)): 5.58 ± 1.05 µM
O=C(CC(C(=O)O)c1ccc(C(F)(F)F)cc1)Nc1ccc(C(=O)N2CCc3ccccc32)cc1 (centres unmarked) [Compound 19]	43.1 ± 4.87	56.5	> 50	–
